Structures can show the parent of a compound that is named as a salt. Where two headings read alike, the source gives them in different places.
Legend:
Format in all cases: cell-based
S. marcescens SM = experiment: In vitro MIC, Broth Dilution Method, S. marcescens SM; conditions: Serratia marcescens
Source text: (§1) The in vitro activity of the compounds of the present invention as measured by the Minimum Inhibitory Concentration in micrograms/ml utilizing the Agar Well Diffusion Method or Broth Dilution Method against a variety of Gram-positive and Gram-negative organisms is as follows:
(§2) In vitro MIC (μg/ml) Broth Dilution Method

E. cloacae 214 = experiment: In vitro MIC, Broth Dilution Method, E. cloacae 214; conditions: Enterobacter cloacae
Source text: as §1, §2

P. aeruginosa Stone 130 = experiment: In vitro MIC, Broth Dilution Method, P. aeruginosa Stone 130; conditions: Pseudomonas aeruginosa, STONE130
Source text: as §1, §2

E. cloacae 948-1 = experiment: In vitro MIC, Broth Dilution Method, E. cloacae 948-1; conditions: Enterobacter cloacae, 9481
Source text: as §1, §2

P. vulgaris ATCC 6380 = experiment: In vitro MIC, Broth Dilution Method, P. vulgaris ATCC 6380; conditions: Proteus vulgaris
Source text: as §1, §2

S. aureus 95 = experiment: In vitro MIC, Broth Dilution Method, S. aureus 95; conditions: Staphylococcus aureus
Source text: as §1, §2

P. mirabilis 190 = experiment: In vitro MIC, Broth Dilution Method, P. mirabilis 190; conditions: Proteus mirabilis
E. cloacae 2367-2 = experiment: In vitro MIC, Broth Dilution Method, E. cloacae 2367-2; conditions: Enterobacter cloacae, 23672
Source text: as §1, §2

E. coli 48 = experiment: In vitro MIC, Broth Dilution Method, E. coli 48; conditions: Escherichia coli
E. cloacae 9570A = experiment: In vitro MIC, Broth Dilution Method, E. cloacae 9570A; conditions: Enterobacter cloacae
Source text: as §1, §2

S. aureus Smith = experiment: In vitro MIC, Broth Dilution Method, S. aureus Smith; conditions: Staphylococcus aureus
E. cloacae 7099 = experiment: In vitro MIC, Broth Dilution Method, E. cloacae 7099; conditions: Enterobacter cloacae
P. aeruginosa 503-56 = experiment: In vitro MIC, Broth Dilution Method, P. aeruginosa 503-56; conditions: Pseudomonas aeruginosa, 50356
Source text: as §1, §2

K. pneumoniae A = experiment: In vitro MIC, Broth Dilution Method, K. pneumoniae A; conditions: Klebsiella pneumoniae
[1] = ATCC6380, P. vulgaris ATCC 6380, Broth Dilution Method, read-out: In vitro MIC

| SMILES | MIC (S. marcescens SM) | MIC (E. cloacae 214) | MIC (P. aeruginosa Stone 130) | MIC (E. cloacae 948-1) | MIC (P. vulgaris ATCC 6380; [1]) | MIC (S. aureus 95) | MIC (P. mirabilis 190) | MIC (E. cloacae 2367-2) | MIC (E. coli 48) | MIC (E. cloacae 9570A) | MIC (S. aureus Smith) | MIC (E. cloacae 7099) | MIC (P. aeruginosa 503-56) | MIC (P. vulgaris ATCC 6380; ATCC6380, read-out: In vitro MIC) | MIC (K. pneumoniae A) |
| --- | --- | --- | --- | --- | --- | --- | --- | --- | --- | --- | --- | --- | --- | --- | --- |
| CCn1cc(C(=O)OCC2=C(C(=O)O)N3C(=O)[C@@H](NC(=O)/C(=N\OC)c4csc(N)n4)[C@H]3SC2)c(=O)c2ccc(C)nc21 [Compound C, [6R-(6alpha,7beta)(Z)]-7-[[(2-Amino-4-thiazolyl) (methoxyimino)acetyl]amino]-3-[[[(1-ethyl-1,4-dihydro-7-methyl-4-oxo-1,8-naphthyridin-3-yl)carbonyl]oxy]methyl]-8-oxo-5-thia-1-azabicyclo [4.2.0]oct-2-ene-2-carboxylic acid sodium salt] | 1 µg/mL | 8 µg/mL | 128 µg/mL | 8 µg/mL | 0.25 µg/mL | 8 µg/mL | 0.16 µg/mL | 16 µg/mL | 0.5 µg/mL | 2 µg/mL | 2 µg/mL | 8 µg/mL | 128 µg/mL |  |  |
| CCn1cc(C(=O)OCC2=C(C(=O)O)N3C(=O)[C@@H](NC(=O)/C(=N\OC)c4csc(N)n4)[C@H]3SC2)c(=O)c2cc3c(cc21)OCO3 [Compound D, [6R-(6alpha,7beta)(Z)]-7-[[(2-Amino-4-thiazolyl) (methoxyimino)acetyl]amino]-3-[[[(5-ethyl-5,8-dihydro-8-oxo-1,3-dioxolo[4,5-g]quinolin-7-yl)carbonyl]oxy]methyl]-8-oxo-5-thia-1-azabicyclo [4.2.0]oct-2-ene-2-carboxylic acid sodium salt] | 0.5 µg/mL | 0.5 µg/mL | 16 µg/mL | 1 µg/mL |  | 4 µg/mL | 0.008 µg/mL | 2 µg/mL |  | 1 µg/mL | 2 µg/mL | 0.5 µg/mL | 32 µg/mL | 0.063 µg/mL |  |
| CCn1cc(C(=O)OCC2=C(C(=O)O)N3C(=O)[C@@H](NC(=O)/C(=N\OC)c4csc(N)n4)[C@H]3SC2)c(=O)c2cc(F)c(N3CCCC3)cc21 [Compound I, [6R-(6alpha,7beta)(Z)]-7-[[(2-Amino-4-thiazolyl) (methoxyimino)acetyl]amino]-3-[[[[1-ethyl-6-fluoro-1,4-dihydro-7-(1-pyrrolidinyl)-4-oxoquinolin-3-yl]-carbonyl]oxy]methyl]-8-oxo-5-thia-1-azabicyclo[4.2.0]oct-2-ene-2-carboxylic acid sodium salt] | 1 µg/mL | 4 µg/mL | 8 µg/mL | 4 µg/mL | 0.5 µg/mL | 0.5 µg/mL | 0.031 µg/mL | 4 µg/mL | 0.5 µg/mL | 2 µg/mL | 0.25 µg/mL | 2 µg/mL | 32 µg/mL |  | 0.5 µg/mL |
| CCn1cc(C(=O)OCC2=C(C(=O)O)N3C(=O)[C@@H](NC(=O)COc4ccccc4)[C@H]3SC2)c(=O)c2cc3c(cc21)OCO3 [Compound B, [6R-(6alpha,7beta)]-3-[[[(5-Ethyl-5,8-dihydro-8-oxo-1,3-dioxolo[4,5-g]quinolin-7-yl)carbonyl]oxy]methyl]-8-oxo-7-[(phenoxyacetyl)amino]-5-thia-1-azabicyclo[4.2.0]oct-2-ene-2-carboxylic acid monosodium salt] | 1 µg/mL | 2 µg/mL | 32 µg/mL | 2 µg/mL | 0.5 µg/mL | 4 µg/mL |  | 1 µg/mL | 2 µg/mL | 2 µg/mL | 0.25 µg/mL |  | 64 µg/mL |  | 1 µg/mL |
| CCn1cc(C(=O)OCC2=C(C(=O)O)N3C(=O)[C@@H](NC(=O)Cc4cccs4)[C@H]3SC2)c(=O)c2cc3c(cc21)OCO3 [Compound F, [6R-(6alpha,7beta)]-3-[[[(5-Ethyl-5,8-dihydro-8-oxo-1,3-dioxolo[4,5-g]quinolin-7-yl)carbonyl]oxy]methyl]-8-oxo-7-[(2-thienylacetyl)amino]-5-thia-1-azabicyclo-[4.2.0]oct-2-ene-2-carboxylic acid sodium salt] | 1 µg/mL | 2 µg/mL | 32 µg/mL | 1 µg/mL | 0.5 µg/mL | 4 µg/mL | 0.5 µg/mL | 1 µg/mL | 2 µg/mL | 2 µg/mL |  |  | 64 µg/mL |  | 1 µg/mL |
| CCn1cc(C(=O)OCC2=C(C(=O)O)N3C(=O)[C@@H](NC(=O)COc4ccccc4)[C@H]3SC2)c(=O)c2ccc(C)nc21 [Compound A, [6R-(6alpha,7beta)]-3-[[[(1-Ethyl-1,4-dihydro-7-methyl-4-oxo-1,8-naphthydrin-3-yl)carbonyl]oxy]methyl]-8-oxo-7-[(phenoxyacetyl)amino]-5-thia-1-azabicyclo[4.2.0]oct-2-ene-2-carboxylic acid hydrate] | 16 µg/mL | 128 µg/mL | 128 µg/mL |  | 8 µg/mL |  | 8 µg/mL |  | 32 µg/mL | 64 µg/mL | 0.25 µg/mL | 16 µg/mL | 128 µg/mL |  | 16 µg/mL |
| CCn1cc(C(=O)OCC2=C(C(=O)O)N3C(=O)[C@@H](NC(=O)Cc4cccs4)[C@H]3SC2)c(=O)c2cc(F)c(N3CCN(C=O)CC3)cc21 [Compound G, [6R-(6alpha,7beta)]-3-[[[[1-Ethyl-6-fluoro-1,4-dihydro-7-(4-formyl-1-piperazinyl)-4-oxoquinolin-3-yl]-carbonyl]oxy]methyl]-7-[(2-thienylacetyl)amino]-5-thia-1-azabicyclo[4.2.0]oct-2-ene-2-carboxylic acid sodium salt] | 4 µg/mL | 64 µg/mL | 32 µg/mL | 8 µg/mL | 4 µg/mL | 4 µg/mL | 4 µg/mL | 32 µg/mL | 8 µg/mL | 8 µg/mL | 0.25 µg/mL | 2 µg/mL | 64 µg/mL |  | 4 µg/mL |
| CCn1cc(C(=O)OCC2=C(C(=O)O)N3C(=O)[C@@H](NC(=O)COc4ccccc4)[C@H]3SC2)c(=O)c2cc(F)c(N3CCN(C=O)CC3)cc21 [Compound E, [6R-(6alpha,7beta)]-3-[[[[1-Ethyl-6-fluoro-1,4-dihydro-7-(4-formyl-1-piperazinyl)-4-oxo-quinolin-3-yl]-carbonyl]oxy]methyl-8-oxo-7-[(phenoxyacetyl)amino]-5-thia-1-azabicyclo[4.2.0]oct-2-ene-2-carboxylic acid sodium salt] | 4 µg/mL | 8 µg/mL | 16 µg/mL | 8 µg/mL | 4 µg/mL | 2 µg/mL | 0.5 µg/mL | 4 µg/mL |  | 8 µg/mL | 0.063 µg/mL | 2 µg/mL | 32 µg/mL |  | 2 µg/mL |
| CCn1cc(C(=O)OCC2=C(C(=O)O)N3C(=O)[C@@H](NC(=O)COc4ccccc4)[C@H]3SC2)c(=O)c2cc(F)c(N3CCCC3)cc21 [Compound H, [6R-(6alpha,7beta)]-3-[[[[1-Ethyl-6-fluoro-1,4-dihydro-7-(1-pyrrolidinyl)-4-oxo-quinolin-3-yl]carbonyl]oxy]methyl]-8-oxo-7-[(phenoxyacetyl)amino]-5-thia-1-azabicyclo[4.2.0]oct-2-ene-2-carboxylic acid sodium salt] | 32 µg/mL | 32 µg/mL | 32 µg/mL | 32 µg/mL | 32 µg/mL | 0.5 µg/mL | 0.5 µg/mL | 32 µg/mL | 32 µg/mL | 32 µg/mL | 0.25 µg/mL | 2 µg/mL | 64 µg/mL |  | 32 µg/mL |

From patent US5147871A, “Anti-bacterial cephalosporin compounds” (Hoffmann La-Roche, Inc., priority 1991, dated 1992)
